Measurements from ChEMBL document CHEMBL1201862, “PubChem BioAssay data set” (2004).
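In this assay, cells in 96-well plates receive the compound at five concentrations for 48 hours. Endpoints are linearly interpolated between the surrounding concentrations. The concentration for 50% growth inhibition is given as GI50.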 Calls of active or inactive are those of the source. Rule as the data show it: active = GI50 up to about 1.1 µM and inactive = higher.

Experiments:
Assay in all cases: NCI anticancer screen, dose series, 48 h
BT-549 = tested on: BT-549
HL-60 = tested on: HL-60
Hs-578T = tested on: Hs-578T
M14 = tested on: M14
MDA-N = tested on: MDA-N
NCI-H460 = tested on: NCI-H460
PC-3 = tested on: PC-3
SK-MEL-5 = tested on: SK-MEL-5
SR = tested on: SR
T47D = tested on: T47D
HCC 2998 = tested on: HCC 2998
NCI-H226 = tested on: NCI-H226
NCI-H522 = tested on: NCI-H522
RXF 393 = tested on: RXF 393
SK-MEL-28 = tested on: SK-MEL-28
DMS-114 = tested on: DMS-114
DMS-273 = tested on: DMS-273
LXFL 529 = tested on: LXFL 529
RXF 631 = tested on: RXF 631
XF498 = tested on: XF498

Measured: GI50

N#Cc1c(NC(=S)NC(=O)c2ccccc2)nc2c(c1-c1ccccc1)CCC2
inactive: BT-549 > 100 µM | HL-60 > 100 µM | Hs-578T 39.8 µM | M14 > 100 µM | MDA-N > 100 µM | NCI-H460 > 100 µM | PC-3 > 100 µM | SK-MEL-5 73.3 µM | SR > 100 µM | T47D 25.5 µM

Cc1ccc(C2C(C(=O)C(C)(C)C)N2S(=O)(=O)c2ccc(C)cc2)cc1 (stereo not drawn)
inactive: BT-549 17.7 µM | HCC 2998 19.1 µM | Hs-578T 28.7 µM | M14 17.8 µM | MDA-N 19.1 µM | NCI-H226 21.3 µM | NCI-H522 16.1 µM | PC-3 29.7 µM | RXF 393 21 µM | SK-MEL-28 28.1 µM | T47D 21 µM

O=c1c(C(c2ccc(Cl)cc2)c2c(O)c3ccccc3n(-c3ccccc3)c2=O)c(O)c2ccccc2n1-c1ccccc1
inactive: DMS-114 28.7 µM | DMS-273 36.9 µM | HCC 2998 23.3 µM | LXFL 529 26.5 µM | NCI-H226 73.6 µM | NCI-H522 22.6 µM | RXF 393 36.6 µM | RXF 631 19.1 µM | SK-MEL-28 > 100 µM | SK-MEL-5 28.7 µM | SR 7.43 µM | XF498 18.8 µM
